# Measured values taken from patent US8512789B2, “High-potency sweetener composition with dietary fiber and compositions sweetened therewith” (The Coca-Cola Company, priority 2005, dated 2013).
# Tests used:
# [1] = Sensory evaluation of sweetness linger by a panel of experts; type: in vivo; design: key: 0=no sweetness linger; 1=very slight sweetness linger; 2 slight sweetness linger; 3 moderate sweetness linger; 4=moderately high sweetness linger; 5 high sweetness linger
# Method: In a particular embodiment, a panel of assessors is used to measure the reduction of sweetness linger. Briefly described, a panel of assessors (generally 8 to 12 individuals) is trained to evaluate sweetness perception and measure sweetness at several time points from when the sample is initially taken into the mouth until 3 minutes after it has been expectorated. […] A decrease in score for a time point measured after the sample has cleared the mouth indicates there has been a reduction in sweetness perception.
# The panel of assessors may be trained using procedures well known to those of ordinary skill in the art. In a particular embodiment, the panel of assessors may be trained using the Spectrum™ Descriptive Analysis Method (Meilgaard et al, Sensory Evaluation Techniques, 3rd edition, Chapter 11). Desirably, the focus of training should be the recognition of and the measure of the basic tastes; specifically, sweet. […]
# Sensory evaluation of the samples prepared in Example Set C was carried out under the following protocol, similar to that described hereinabove. […] Immediately upon sensing maximal sweetness, the sample was expectorated, the mouth was rinsed with water and the rate of sweetness decay (“Sweetness Linger”) was measured, where attention was focused on the sweetness 3-4 min after the water rinse. […]
# [2] = Rate of dissolution of rebaudioside A polymorph and amorphous forms in H2O at 25° C.; type: physicochemical
Substance,"Sweetness Linger rating ([1]; Example Set G: citric acid/potassium citrate composition equivalent to diet lemon-lime beverage, 400 ppm REBA base (sugar control 8 g/100 ml), scale 0-5, sweetness 3-4 min after water rinse)","Sweetness Linger rating ([1]; Example Set H: carbon-treated water with phosphoric acid (75%), pH 2.4-2.5, REBA base (sugar control 10 g/100 ml), scale 0-5)",Rate of dissolution in H2O at 25° C. [2],Rate of dissolution in H2O at 25° C. (in words) [2]
rebaudioside A,5,5,,
rebaudioside A [Form 1],,,(<0.2%/ %/60 minutes,Very low
rebaudioside A [Form 2],,,,Intermediate
rebaudioside A [Form 3],,,(>30%/ %/5 minutes,High
rebaudioside A [Form 4],,,(>35%/ %/5 minutes,High
